Assay results published in ChEMBL document CHEMBL1145724, “Cyclic amine sulfonamides as linkers in the design and synthesis of novel human beta(3) adrenergic receptor agonists” (Bioorg Med Chem Lett, 2003).

Assays:
[1] = biological target: T1, Beta-3 adrenergic receptor (Homo sapiens, UniProt P13945); test: Intrinsic activity against cloned human beta3-AR was measured as fractions of the maximal response
Target sequence in this assay (P13945 whole entry, looked up): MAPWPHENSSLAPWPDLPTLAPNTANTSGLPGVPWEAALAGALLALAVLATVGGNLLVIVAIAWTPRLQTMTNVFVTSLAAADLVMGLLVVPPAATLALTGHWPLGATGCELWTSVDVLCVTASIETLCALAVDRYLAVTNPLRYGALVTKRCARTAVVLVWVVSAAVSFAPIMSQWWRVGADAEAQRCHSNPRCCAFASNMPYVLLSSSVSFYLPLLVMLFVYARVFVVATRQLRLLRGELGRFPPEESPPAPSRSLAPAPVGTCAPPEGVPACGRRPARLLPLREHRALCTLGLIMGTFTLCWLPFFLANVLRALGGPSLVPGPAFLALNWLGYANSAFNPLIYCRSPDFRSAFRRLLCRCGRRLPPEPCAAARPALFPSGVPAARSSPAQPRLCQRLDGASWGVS

[2] = biological target: T2, Beta-1 adrenergic receptor (Homo sapiens, UniProt P08588); test: Agonistic activity against cloned human beta1-AR (beta-1-adrenergic receptor) in CHO cells; assay type: functional, cell-based
Target sequence in this assay (P08588 whole entry): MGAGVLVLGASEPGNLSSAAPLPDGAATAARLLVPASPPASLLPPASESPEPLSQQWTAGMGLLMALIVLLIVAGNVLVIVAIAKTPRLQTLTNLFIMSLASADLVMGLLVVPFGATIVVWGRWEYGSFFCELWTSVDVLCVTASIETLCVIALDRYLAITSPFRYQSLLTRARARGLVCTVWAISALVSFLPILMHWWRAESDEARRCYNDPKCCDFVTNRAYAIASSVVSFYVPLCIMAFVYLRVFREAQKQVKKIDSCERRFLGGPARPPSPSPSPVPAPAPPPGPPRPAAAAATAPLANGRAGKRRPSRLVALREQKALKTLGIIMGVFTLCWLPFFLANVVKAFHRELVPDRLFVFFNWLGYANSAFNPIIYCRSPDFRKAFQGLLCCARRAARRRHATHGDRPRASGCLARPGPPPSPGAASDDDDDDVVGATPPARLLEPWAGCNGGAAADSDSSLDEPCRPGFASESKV

[3] = biological target: Beta-2 adrenergic receptor (Homo sapiens, UniProt P07550); test: Agonistic activity against cloned human […] (beta-2-adrenergic receptor) in CHO cells; assay type: functional, cell-based
[4] = biological target: T2, Beta-1 adrenergic receptor; test: Intrinsic activity against cloned human beta1-AR was measured as fractions of the maximal response
Target sequence in this assay (P08588 whole entry, looked up): as the sequence (P08588 whole entry) above

[5] = biological target: T1, Beta-3 adrenergic receptor; test: Agonistic activity against cloned human beta3-AR (beta-3-adrenergic receptor) in CHO cells; assay type: functional, cell-based
Target sequence in this assay (P13945 whole entry): as the sequence (P13945 whole entry, looked up) above

Beta-2 adrenergic receptor, sequence (P07550 whole entry): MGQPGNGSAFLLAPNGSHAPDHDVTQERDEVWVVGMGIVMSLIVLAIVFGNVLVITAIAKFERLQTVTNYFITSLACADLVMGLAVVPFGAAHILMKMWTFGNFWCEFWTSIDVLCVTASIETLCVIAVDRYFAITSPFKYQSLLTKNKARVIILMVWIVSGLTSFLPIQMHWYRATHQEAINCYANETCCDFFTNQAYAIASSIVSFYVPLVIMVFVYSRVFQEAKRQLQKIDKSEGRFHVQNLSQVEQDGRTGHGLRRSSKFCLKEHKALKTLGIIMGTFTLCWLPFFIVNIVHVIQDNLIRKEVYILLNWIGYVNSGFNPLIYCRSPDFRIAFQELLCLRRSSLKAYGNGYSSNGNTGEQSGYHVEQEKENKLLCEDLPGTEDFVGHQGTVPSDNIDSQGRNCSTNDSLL

| SMILES | Intrinsic activity [1] | EC50 [2] | EC50 [3] | Intrinsic activity [4] | EC50 [5] |
| --- | --- | --- | --- | --- | --- |
| CCCCOc1ccc(S(=O)(=O)N2CC(NC[C@H](O)c3ccc(O)cc3)C2)cc1 | 0.82 | 1.6 µM | 0.92 µM | 0.49 | 0.03 µM |
| O=c1[nH]c2cccc(OC[C@@H](O)CNC3CCN(S(=O)(=O)c4cccc5nsnc45)CC3)c2[nH]1 |  |  |  |  | 0.85 µM |
| COc1ccc(S(=O)(=O)N2CCC(NC[C@H](O)COc3cccc4[nH]c(=O)[nH]c34)CC2)cc1OC |  | > 100 µM | > 100 µM |  | 0.09 µM |
| CCCCOc1ccc(S(=O)(=O)N2CC(NC[C@H](O)COc3cccc4[nH]c5ccccc5c34)C2)cc1 |  |  |  |  | > 2 µM |
| O=S(=O)(c1cccc2nsnc12)N1CCC(NC[C@H](O)COc2cccc3[nH]c(O)nc23)CC1 | 0.75 |  |  |  |  |
| O=c1[nH]c2cccc(OC[C@@H](O)CNC3CCN(S(=O)(=O)c4ccc5oc6ccccc6c5c4)CC3)c2[nH]1 |  |  |  |  | 0.07 µM |
| O=S(=O)(c1ccc2oc3ccccc3c2c1)N1CCC(NC[C@H](O)COc2cccc3[nH]c(O)nc23)CC1 | 0.64 |  |  |  |  |
| COc1ccc(S(=O)(=O)N2CCC(NC[C@H](O)COc3cccc4[nH]c5ccccc5c34)CC2)cc1OC | 1.2 | > 100 µM | > 100 µM | 0.14 |  |
| CS(=O)(=O)Nc1cc([C@@H](O)CNC2CCN(S(=O)(=O)c3ccc4oc5ccccc5c4c3)CC2)ccc1O | 0.88 |  |  |  | 0.12 µM |
| COc1ccc(S(=O)(=O)N2CCC(NC[C@H](O)COc3cccc4[nH]c(O)nc34)CC2)cc1OC | 0.87 |  |  | 0.33 |  |

Second part, the compound after the results:

| Intrinsic activity [1] | EC50 [2] | EC50 [3] | Intrinsic activity [4] | EC50 [5] | SMILES |
| --- | --- | --- | --- | --- | --- |
| 0.74 | > 100 µM | > 100 µM | 0.04 |  | CCCCOc1ccc(S(=O)(=O)N2CCC(NC[C@H](O)COc3cccc4[nH]c5ccccc5c34)CC2)cc1 |
| 0.82 | 0.012 µM | 0.92 µM | 0.66 | 0.005 µM | CCCCCCNC(=O)Nc1ccc(S(=O)(=O)N2CCC(NC[C@H](O)c3ccc(O)c(NS(C)(=O)=O)c3)CC2)cc1 |
| 0.72 |  |  | 0.32 |  | COc1ccc(S(=O)(=O)N2CCC(NC[C@H](O)COc3cccc4[nH]c(O)nc34)CC2)cc1 |
| 0.88 | 100 µM | > 100 µM | 0.11 |  | COc1ccc(S(=O)(=O)N2CCC(NC[C@H](O)COc3cccc4[nH]c5ccccc5c34)CC2)cc1 |
|  |  |  |  | > 2 µM | CCCCOc1ccc(S(=O)(=O)N2CCC(NC[C@H](O)COc3ccc(O)cc3)CC2)cc1 |
|  |  |  |  | 0.036 µM | CCCCCCNC(=O)Nc1ccc(S(=O)(=O)N2CCC(NC[C@H](O)COc3cccc4[nH]c(=O)[nH]c34)CC2)cc1 |
| 0.74 | 10.3 µM | > 100 µM | 0.46 | 0.055 µM | COc1ccc(S(=O)(=O)N2CCC(NC[C@H](O)COc3ccc(O)cc3)CC2)cc1 |
|  | > 100 µM | > 100 µM |  | 0.12 µM | COc1ccc(S(=O)(=O)N2CCC(NC[C@H](O)COc3cccc4[nH]c(=O)[nH]c34)CC2)cc1 |
| 0.78 |  |  |  | 1.1 µM | CCCCOc1ccc(S(=O)(=O)N2CC(NC[C@H](O)c3ccc(O)c(NS(C)(=O)=O)c3)C2)cc1 |
|  |  |  |  | > 2 µM | CCCCOc1ccc(S(=O)(=O)N2CCC(NC[C@H](O)COc3cccc4[nH]c5ccccc5c34)C2)cc1 (stereo not given in full) |
|  |  |  |  | > 2 µM | CCCCCCNC(=O)Nc1ccc(S(=O)(=O)N2CCC(NC[C@H](O)COc3ccc(O)cc3)CC2)cc1 |
| 1 |  |  |  | 0.92 µM | CCC(C)(C)c1ccc(S(=O)(=O)N2CCC(NC[C@H](O)COc3cccc4[nH]c5ccccc5c34)CC2)cc1 |
| 0.74 |  |  |  |  | CCCCCCNC(=O)Nc1ccc(S(=O)(=O)N2CCC(NC[C@H](O)COc3cccc4[nH]c(O)nc34)CC2)cc1 |
| 0.79 |  |  |  | 0.36 µM | CCCCOc1ccc(S(=O)(=O)N2CCC(NC[C@H](O)c3ccc(O)c(NS(C)(=O)=O)c3)C2)cc1 (stereo not given in full) |
